Experimental data taken from ChEMBL document CHEMBL4619795, “Establishing the Structure-Activity Relationship of Daptomycin” (ACS Med Chem Lett, 2020).

Columns and labels:
Type in all cases: functional
Enterococcus faecalis [1] = assay: Antibacterial activity against Streptococcus faecalis assessed as bacterial growth inhibition in presence of 50 ug/ml calcium ions by CLSI protocol based broth microdilution method
Staphylococcus aureus [2] = assay: Antibacterial activity against methicillin-resistant Staphylococcus aureus 11 assessed as bacterial growth inhibition in presence of 50 ug/ml calcium ions by CLSI protocol based broth microdilution method
Staphylococcus aureus [3] = assay: Antibacterial activity against methicillin-resistant Staphylococcus aureus 86 assessed as bacterial growth inhibition in presence of 50 ug/ml calcium ions by CLSI protocol based broth microdilution method
Enterococcus [4] = assay: Antibacterial activity against Enterococcus 60 assessed as bacterial growth inhibition in presence of 50 ug/ml calcium ions by CLSI protocol based broth microdilution method
Staphylococcus aureus [5] = assay: Antibacterial activity against Staphylococcus aureus ATCC 29213 assessed as bacterial growth inhibition in presence of 50 ug/ml calcium ions by CLSI protocol based broth microdilution method
Enterococcus faecalis [6] = assay: Antibacterial activity against Enterococcus faecalis ATCC 29212 assessed as bacterial growth inhibition in presence of 50 ug/ml calcium ions by CLSI protocol based broth microdilution method
Enterococcus [7] = assay: Antibacterial activity against Enterococcus 6 assessed as bacterial growth inhibition in presence of 50 ug/ml calcium ions by CLSI protocol based broth microdilution method
Staphylococcus aureus [8] = assay: Antibacterial activity against methicillin-resistant Staphylococcus aureus 88 assessed as bacterial growth inhibition in presence of 50 ug/ml calcium ions by CLSI protocol based broth microdilution method
Staphylococcus aureus [9] = assay: Antibacterial activity against methicillin-resistant Staphylococcus aureus 14 assessed as bacterial growth inhibition in presence of 50 ug/ml calcium ions by CLSI protocol based broth microdilution method

SMILES	MIC (Enterococcus faecalis [1]) [µg/mL]	MIC (Staphylococcus aureus [2]) [µg/mL]	MIC (Staphylococcus aureus [3]) [µg/mL]	MIC (Enterococcus [4]) [µg/mL]	MIC (Staphylococcus aureus [5]) [µg/mL]	MIC (Enterococcus faecalis [6]) [µg/mL]	MIC (Enterococcus [7]) [µg/mL]	MIC (Staphylococcus aureus [8]) [µg/mL]	MIC (Staphylococcus aureus [9]) [µg/mL]
CCCCCCCCCC(=O)N[C@@H](Cc1ccc(OC)cc1)C(=O)N[C@@H](CC(N)=O)C(=O)N[C@@H](CC(=O)O)C(=O)N[C@@H]1C(=O)NCC(=O)N[C@@H](CCCN)C(=O)N[C@@H](CC(=O)O)C(=O)N[C@H](C)C(=O)N[C@@H](CC(=O)O)C(=O)NCC(=O)N[C@H](CO)C(=O)N[C@@H]([C@@H](C)CC(=O)O)C(=O)N[C@@H](CC(=O)c2ccccc2N)C(=O)O[C@@H]1C	8	16	2	≥ 32	2	≥ 32	≥ 32	2	4
CCCCCCCCCC(=O)N[C@@H](Cc1c[nH]c2ccccc12)C(=O)N[C@@H](CC(N)=O)C(=O)N[C@@H](CC(=O)O)C(=O)N[C@@H]1C(=O)NCC(=O)N[C@@H](Cc2c[nH]c3ccccc23)C(=O)N[C@@H](CC(=O)O)C(=O)N[C@H](C)C(=O)N[C@@H](CC(=O)O)C(=O)NCC(=O)N[C@H](CO)C(=O)N[C@@H]([C@@H](C)CC(=O)O)C(=O)N[C@@H](CC(=O)c2ccccc2N)C(=O)O[C@@H]1C	2	2	4	≥ 32	4	≥ 32	≥ 32	2	1
CCCCCCCCCC(=O)N[C@@H](Cc1c[nH]c2ccccc12)C(=O)N[C@@H](CC(N)=O)C(=O)N[C@@H](CC(=O)O)C(=O)N[C@@H]1C(=O)NCC(=O)N[C@@H](CCCN)C(=O)N[C@@H](CC(=O)O)C(=O)N[C@@H](C)C(=O)N[C@@H](CC(=O)O)C(=O)NCC(=O)N[C@H](CO)C(=O)N[C@@H]([C@@H](C)CC(=O)O)C(=O)N[C@@H](CC(=O)c2ccccc2N)C(=O)O[C@@H]1C	≥ 64	≥ 64	≥ 64	≥ 64	≥ 64	≥ 64	≥ 64	≥ 64	≥ 64
CCCCCCCCCC(=O)N[C@@H](Cc1c[nH]c2ccccc12)C(=O)N[C@@H](CC(N)=O)C(=O)N[C@@H](CC(=O)O)C(=O)N[C@@H]1C(=O)NCC(=O)N[C@@H](CCCN)C(=O)N[C@@H](CC(=O)O)C(=O)N[C@H](C)C(=O)N[C@@H](C(C)CC(=O)O)C(=O)NCC(=O)N[C@H](CO)C(=O)N[C@@H](C(C)CC(=O)O)C(=O)N[C@@H](CC(=O)c2ccccc2N)C(=O)O[C@@H]1C (single isomer, unassigned)	≥ 32	≥ 32	≥ 32	≥ 32	≥ 32	≥ 32	≥ 32	≥ 32	≥ 32
CCCCCCCCCC(=O)N[C@@H](Cc1c[nH]c2ccccc12)C(=O)N[C@@H](CC(N)=O)C(=O)N[C@@H](CC(=O)O)C(=O)N[C@@H]1C(=O)NCC(=O)N[C@@H](CC(C)C)C(=O)N[C@@H](CC(=O)O)C(=O)N[C@H](C)C(=O)N[C@@H](CC(=O)O)C(=O)NCC(=O)N[C@H](CO)C(=O)N[C@@H]([C@@H](C)CC(=O)O)C(=O)N[C@@H](CC(=O)c2ccccc2N)C(=O)O[C@@H]1C	≥ 32	1	4	16	4	≥ 32	≥ 32	2	0.5
CCCCCCCCCC(=O)N[C@@H](Cc1c[nH]c2ccccc12)C(=O)N[C@@H](CC(N)=O)C(=O)N[C@@H](CC(=O)O)C(=O)N[C@@H]1C(=O)NCC(=O)N[C@@H](C(C)C)C(=O)N[C@@H](CC(=O)O)C(=O)N[C@H](C)C(=O)N[C@@H](CC(=O)O)C(=O)NCC(=O)N[C@H](CO)C(=O)N[C@@H]([C@@H](C)CC(=O)O)C(=O)N[C@@H](CC(=O)c2ccccc2N)C(=O)O[C@@H]1C	≥ 32	≥ 32	8	≥ 32	8	≥ 32	≥ 32	8	≥ 32
CCCCCCCCCC(=O)N[C@@H](Cc1c[nH]c2ccccc12)C(=O)N[C@@H](CC(N)=O)C(=O)N[C@@H](CC(=O)O)C(=O)N[C@@H]1C(=O)NCC(=O)N[C@@H](CC(=O)O)C(=O)N[C@@H](CC(=O)O)C(=O)N[C@H](C)C(=O)N[C@@H](CC(=O)O)C(=O)NCC(=O)N[C@H](CO)C(=O)N[C@@H]([C@@H](C)CC(=O)O)C(=O)N[C@@H](CC(=O)c2ccccc2N)C(=O)O[C@@H]1C	≥ 32	≥ 32	16	≥ 32	16	≥ 32	≥ 32	8	≥ 32
CCCCCCCCCC(=O)N[C@@H](Cc1c[nH]c2ccccc12)C(=O)N[C@@H](CC(N)=O)C(=O)N[C@@H](CC(=O)O)C(=O)N[C@@H]1C(=O)NCC(=O)N2CCC[C@H]2C(=O)N[C@@H](CC(=O)O)C(=O)N[C@H](C)C(=O)N[C@@H](CC(=O)O)C(=O)NCC(=O)N[C@H](CO)C(=O)N[C@@H]([C@@H](C)CC(=O)O)C(=O)N[C@@H](CC(=O)c2ccccc2N)C(=O)O[C@@H]1C	≥ 32	≥ 32	≥ 32	≥ 32	≥ 32	≥ 32	≥ 32	≥ 32	≥ 32
CCCCCCCCCC(=O)N[C@@H](Cc1c[nH]c2ccccc12)C(=O)N[C@@H](CC(N)=O)C(=O)N[C@@H](CC(=O)O)C(=O)N[C@@H]1C(=O)NCC(=O)N[C@@H](CCCN)C(=O)N[C@@H](CC(=O)O)C(=O)N[C@H](C)C(=O)N[C@@H](C)C(=O)NCC(=O)N[C@H](CO)C(=O)N[C@@H]([C@@H](C)CC(=O)O)C(=O)N[C@@H](CC(=O)c2ccccc2N)C(=O)O[C@@H]1C	≥ 64	≥ 64	≥ 64	≥ 64	≥ 64	≥ 64	≥ 64	≥ 64	≥ 64
CCCCCCCCCC(=O)N[C@@H](Cc1c[nH]c2ccccc12)C(=O)N[C@@H](CC(N)=O)C(=O)N[C@@H](CC(=O)O)C(=O)N[C@@H]1C(=O)NCC(=O)N[C@@H](CCSC)C(=O)N[C@@H](CC(=O)O)C(=O)N[C@H](C)C(=O)N[C@@H](CC(=O)O)C(=O)NCC(=O)N[C@H](CO)C(=O)N[C@@H]([C@@H](C)CC(=O)O)C(=O)N[C@@H](CC(=O)c2ccccc2N)C(=O)O[C@@H]1C	≥ 32	≥ 32	≥ 32	32	≥ 32	≥ 32	≥ 32	≥ 32	≥ 32
CCCCCCCCCC(=O)N[C@@H](Cc1c[nH]c2ccccc12)C(=O)N[C@@H](CC(N)=O)C(=O)N[C@@H](CC(=O)O)C(=O)N[C@@H]1C(=O)NCC(=O)N[C@@H](CCCNC(=N)N)C(=O)N[C@@H](CC(=O)O)C(=O)N[C@H](C)C(=O)N[C@@H](CC(=O)O)C(=O)NCC(=O)N[C@H](CO)C(=O)N[C@@H]([C@@H](C)CC(=O)O)C(=O)N[C@@H](CC(=O)c2ccccc2N)C(=O)O[C@@H]1C	8	8	2	16	2	≥ 32	32	1	16
C[C@H]1NC(=O)[C@H](CC(=O)O)NC(=O)[C@H](CCCN)NC(=O)CNC(=O)[C@@H](NC(=O)[C@H](CC(=O)O)NC(=O)[C@H](CC(N)=O)NC(=O)[C@H](Cc2c[nH]c3ccccc23)NC(=O)c2ccc(C#Cc3ccccc3)cc2)[C@@H](C)OC(=O)[C@H](CC(=O)c2ccccc2N)NC(=O)[C@H]([C@@H](C)CC(=O)O)NC(=O)[C@@H](CO)NC(=O)CNC(=O)[C@H](CC(=O)O)NC1=O	1	0.25	0.5	2	0.5	8	8	0.5	0.5
CCCCCCCCCC(=O)N[C@@H](Cc1c[nH]c2ccccc12)C(=O)N[C@@H](CC(N)=O)C(=O)N[C@@H](CC(=O)O)C(=O)N[C@@H]1C(=O)NCC(=O)N[C@@H](CCCN)C(=O)N[C@@H](C)C(=O)N[C@H](C)C(=O)N[C@@H](CC(=O)O)C(=O)NCC(=O)N[C@H](CO)C(=O)N[C@@H]([C@@H](C)CC(=O)O)C(=O)N[C@@H](CC(=O)c2ccccc2N)C(=O)O[C@@H]1C	≥ 64	≥ 64	≥ 64	≥ 64	≥ 64	≥ 64	≥ 64	≥ 64	≥ 64
CCCCCCCCCC(=O)N[C@@H](Cc1c[nH]c2ccccc12)C(=O)N[C@@H](CC(N)=O)C(=O)N[C@@H](CC(=O)O)C(=O)N[C@@H]1C(=O)NCC(=O)N[C@@H](CN)C(=O)N[C@@H](CC(=O)O)C(=O)N[C@H](C)C(=O)N[C@@H](CC(=O)O)C(=O)NCC(=O)N[C@H](CO)C(=O)N[C@@H]([C@@H](C)CC(=O)O)C(=O)N[C@@H](CC(=O)c2ccccc2N)C(=O)O[C@@H]1C		8	1	8	1	≥ 32	≥ 32	0.5	1
CCCCCCCCCC(=O)N[C@@H](Cc1c[nH]c2ccccc12)C(=O)N[C@@H](CC(N)=O)C(=O)N[C@@H](CC(=O)O)C(=O)N[C@@H]1C(=O)NCC(=O)N[C@@H](CCN)C(=O)N[C@@H](CC(=O)O)C(=O)N[C@H](C)C(=O)N[C@@H](CC(=O)O)C(=O)NCC(=O)N[C@H](CO)C(=O)N[C@@H]([C@@H](C)CC(=O)O)C(=O)N[C@@H](CC(=O)c2ccccc2N)C(=O)O[C@@H]1C		2	0.25	8	0.25	16	16	0.25	0.5
